The subject of assay [1] is human colon adenocarcinoma sections. The experiment in a line: Binding of fluorescently labeled F. nucleatum to human colon tissue sections / TMA. The following applies: 300 mM GalNAc. As to the method: Tissue Microarray Analysis—Colon cancer tissue array CO2601 (US Biomax) and array CO809a (US Biomax) were used in these studies. Details about the cases for each core on the array are available on the US Biomax Web site.
Immunofluorescence and Section Preparation—Fixed tissue sections were stained with H&E or processed for immunofluorescence microscopy. Sections were blocked and incubated with fluorescent PNA or fluorescent bacteria and imaging analysis are as described in Abed et al. 2016. ibid, Supplemental Experimental Procedures. GalNAc removal was performed by incubating sections with O-glycanase.; see Supplemental Experimental Procedures for experimental details.

Assay [2] relates to high and intermediate Gal-GalNAc-expressing CRC cell lines (HCT116, CT26, RKO). The experiment in a line: Flow cytometry attachment and GalNAc competition assays, high and intermediate Gal-GalNAc-expressing lines. Format: cell-based, human and mouse. Particulars: p=0.04167. How it is done:
Flow Cytometry and Competition Assays—FITC-labeled F. nucleatum were incubated with cells at a MOI of 10 for 30 min at room temperature. FITC-labeled PNA lectin (Sigma-Aldrich) was incubated at a final concentration of 140 nM per 2.5×10^5 cells. For competition experiments, bacteria or PNA was incubated with GalNAc (concentration range 0, 50, 100, and 300 mM) for 30 min prior to incubation with cells. Flow cytometry methods and analysis are as described in Abed et al. 2016. ibid, Supplemental Experimental Procedures.
Background: Flow cytometry measures light scatter and fluorescence of single cells or particles in a stream.

The subject of another assay is erythrocytes. The assay can be described thus: Hemagglutination assay. It is filed as cell-based. Particulars: bacteria preincubated with 25 mM GalNAc. How it is done: Hemagglutination Assays—Hemagglutination assays were performed as previously described (Coppenhagen-Glazer et al., 2015, ibid). For inhibition assays, washed bacteria were preincubated with 25 mM GalNAc (Sigma-Aldrich) for 30 min prior to incubation with erythrocytes.

The source of these data is US20180028601A1, “METHODS AND COMPOSITIONS FOR TREATING CANCER” (Yissum Research Development Company of The Hebrew …, priority 2016, published 2018).

For the compound `CC(=O)N[C@H]1C(O)O[C@H](CO)[C@H](O)[C@@H]1O` (stereo partly shown) [GalNAc], in assay [1], the “inhibition of binding of F. nucleatum ATCC 23726 to human CRC tissue sections” value was “inhibits binding”. In addition, in assay [2] (GalNAc 0, 50, 100, 300 mM), the “inhibition of F. nucleatum ATCC 23726 binding to cells” value is on record as “inhibited by GalNAc in a statistically significant, dose-dependent manner”. The “inhibition of CTI-2 binding to cells” value in assay [2] (soluble GalNAc 0-300 mM) is “inhibited by the addition of soluble GalNAc in a dose-dependent manner”. Further, the “inhibition of CTI-2 hemagglutination” value with erythrocytes is reported as “inhibited”.
